Measurements reported in ChEMBL document CHEMBL5532637, “Antimicrobial activity of natural and semi-synthetic carbazole alkaloids” (Eur J Med Chem, 2023).
≈ marks a conversion by molar mass, not a printed value.

Legend:
Bacillus cereus = assay: Antibacterial activity against Bacillus cereus MTCC 121 assessed as inhibition of bacterial growth by broth micro-dilution assay; format: functional
Staphylococcus aureus [1] = assay: Antibacterial activity against Staphylococcus aureus MTCC 96 assessed as inhibition of bacterial growth by broth micro-dilution assay; format: functional
Escherichia coli [2] = assay: Antibacterial activity against Escherichia coli MTCC 1652 assessed as inhibition of bacterial growth by broth micro-dilution assay; format: functional
Pseudomonas putida = assay: Antibacterial activity against Pseudomonas putida MTCC102 assessed as inhibition of bacterial growth by broth micro-dilution assay; format: functional
Xanthomonas oryzae = assay: Antimicrobial activity against Xanthomonas oryzae incubated for 24 to 48 hrs by turbidimeter test; format: functional, organism-based
Xanthomonas axonopodis = assay: Antimicrobial activity against Xanthomonas axonopodis incubated for 24 to 48 hrs by turbidimeter test; format: functional, organism-based
[3] = Antimicrobial activity against Pseudomonas syringae pv. actinidiae incubated for 24 to 48 hrs by turbidimeter test; format: functional
Cryptococcus neoformans [4] = assay: Antimicrobial activity against Cryptococcus neoformans ATCC6603 assessed as inhibition of microbial growth incubated for 18 hrs by resazurin dye based two-fold serial dilution assay; format: functional
Cryptococcus neoformans [5] = assay: Antimicrobial activity against Cryptococcus neoformans clinical isolate assessed as inhibition of microbial growth incubated for 18 hrs by resazurin dye based two-fold serial dilution assay; format: functional
Staphylococcus aureus [6] = assay: Antimicrobial activity against Staphylococcus aureus assessed as inhibition of microbial growth incubated for 18 hrs by resazurin dye based two-fold serial dilution assay; format: functional
Staphylococcus aureus [7] = assay: Antimicrobial activity against Staphylococcus aureus clinical isolate assessed as inhibition of microbial growth incubated for 18 hrs by resazurin dye based two-fold serial dilution assay; format: functional
Escherichia coli [8] = assay: Antibacterial activity against Escherichia coli assessed as zone of inhibition at 400 ug/ml by disc-diffusion method; format: functional; settings: read-out: IZ
Bacillus subtilis [9] = assay: Antibacterial activity against Bacillus subtilis assessed as zone of inhibition at 400 ug/ml by disc-diffusion method; format: functional; settings: read-out: IZ
Pseudomonas aeruginosa [10] = assay: Antibacterial activity against Pseudomonas aeruginosa assessed as zone of inhibition at 400 ug/ml by disc-diffusion method; format: functional; settings: read-out: IZ
Macrophomina phaseolina = assay: Antifungal activity against Macrophomina phaseolina assessed as zone of inhibition at 400 ug/ml by disc-diffusion method; format: functional; settings: read-out: IZ
Fusarium oxysporum = assay: Antifungal activity against Fusarium oxysporum assessed as zone of inhibition at 400 ug/ml by disc-diffusion method; format: functional; settings: read-out: IZ
Aspergillus flavus = assay: Antifungal activity against Aspergillus flavus assessed as zone of inhibition at 400 ug/ml by disc-diffusion method; format: functional; settings: read-out: IZ
Aspergillus niger = assay: Antimicrobial activity against Aspergillus niger RCMB02329 assessed as inhibition of microbial growth; format: functional
Geotrichum candidum = assay: Antimicrobial activity against Geotrichum candidum RCMB050102 assessed as inhibition of microbial growth; format: functional
Staphylococcus aureus [11] = assay: Antimicrobial activity against Staphylococcus aureus RCMB000106 assessed as inhibition of microbial growth; format: functional
Bacillus subtilis [12] = assay: Antimicrobial activity against Bacillus subtilis RCMB 000107 assessed as inhibition of microbial growth; format: functional
Escherichia coli [13] = assay: Antimicrobial activity against Escherichia coli RCMB000103 assessed as inhibition of microbial growth; format: functional
Klebsiella pneumoniae = assay: Antimicrobial activity against Klebsiella pneumoniae RCMB000111 assessed as inhibition of microbial growth; format: functional
Salmonella typhimurium [14] = assay: Antimicrobial activity against Salmonella typhimurium RCMB010072 assessed as inhibition of microbial growth; format: functional, Salmonella enterica subsp. enterica serovar Typhimurium; settings: Salmonella enterica
Pseudomonas aeruginosa [15] = assay: Antibacterial activity against Pseudomonas aeruginosa MTCC 1688 assessed as inhibition of bacterial growth incubated for 24 hrs by two-fold serial dilution method; format: functional
Escherichia coli [16] = assay: Antibacterial activity against Escherichia coli MTCC 1687 assessed as inhibition of bacterial growth incubated for 24 hrs by two-fold serial dilution method; format: functional
Staphylococcus aureus [17] = assay: Antibacterial activity against Staphylococcus aureus MTCC 96 assessed as inhibition of bacterial growth incubated for 24 hrs by two-fold serial dilution method; format: functional
Bacillus subtilis [18] = assay: Antibacterial activity against Bacillus subtilis MTCC441 assessed as inhibition of bacterial growth incubated for 24 hrs by two-fold serial dilution method; format: functional
Staphylococcus aureus [19] = assay: Antibacterial activity against Staphylococcus aureus assessed as inhibition of bacterial growth by broth microdilution method; format: functional
Streptococcus pyogenes = assay: Antibacterial activity against Streptococcus pyogenes assessed as inhibition of bacterial growth by broth dilution method; format: functional
Salmonella typhimurium [20] = assay: Antibacterial activity against Salmonella typhimurium assessed as inhibition of bacterial growth by broth dilution method; format: functional, Salmonella enterica subsp. enterica serovar Typhimurium; settings: Salmonella enterica
Escherichia coli [21] = assay: Antibacterial activity against Escherichia coli assessed as inhibition of bacterial growth by broth dilution method; format: functional
Staphylococcus aureus [22] = assay: Antibacterial activity against Staphylococcus aureus […] assessed as inhibition of bacterial growth; format: functional
Bacillus subtilis [23] = assay: Antibacterial activity against Bacillus subtilis DSM 6333 assessed as inhibition of bacterial growth; format: functional
Proteus mirabilis = assay: Antibacterial activity against Proteus mirabilis ATCC 29906 assessed as inhibition of bacterial growth; format: functional
Candida albicans [24] = assay: Antifungal activity against Candida albicans ATCC 1231 assessed as inhibition of fungal growth; format: functional
Staphylococcus aureus [25] = assay: Antibacterial activity against Staphylococcus aureus assessed as inhibition of bacterial growth incubated for 24 hrs by macrodilution broth method; format: functional
Bacillus subtilis [26] = assay: Antibacterial activity against Bacillus subtilis assessed as inhibition of bacterial growth incubated for 24 hrs by macrodilution broth method; format: functional
Escherichia coli [27] = assay: Antibacterial activity against Escherichia coli assessed as inhibition of bacterial growth incubated for 24 hrs by macrodilution broth method; format: functional
Pseudomonas aeruginosa [28] = assay: Antibacterial activity against Pseudomonas aeruginosa assessed as inhibition of bacterial growth incubated for 24 hrs by macrodilution broth method; format: functional
Staphylococcus aureus [29] = assay: Antimicrobial activity against Staphylococcus aureus 4220 assessed as inhibition of microbial growth incubated for 24 hrs by two-fold serial dilution assay; format: functional
Staphylococcus aureus [30] = assay: Antimicrobial activity against methicillin-resistant Staphylococcus aureus CCARM 3167 assessed as inhibition of microbial growth incubated for 24 hrs by two-fold serial dilution assay; format: functional
Streptococcus mutans = assay: Antimicrobial activity against Streptococcus mutans 3289 assessed as inhibition of microbial growth incubated for 24 hrs by two-fold serial dilution assay; format: functional
Escherichia coli [31] = assay: Antimicrobial activity against Escherichia coli 1924 assessed as inhibition of microbial growth incubated for 24 hrs by two-fold serial dilution assay; format: functional
Candida albicans [32] = assay: Antimicrobial activity against Candida albicans 7535 assessed as inhibition of microbial growth incubated for 24 hrs by two-fold serial dilution assay; format: functional
Candida albicans [33] = assay: Antifungal activity against Candida albicans assessed as inhibition of fungal growth incubated for 1 to 5 days; format: functional; settings: time 1-5 day

Work on O=C(Nc1ccc(F)cc1)C(=O)c1ccc2c(c1)c1ccccc1n2Cc1ccc(Cl)cc1 yielded an MIC (Bacillus cereus) of 8 mg/L (≈ 17.5 µM), an MIC (Staphylococcus aureus [1]) of 8 mg/L (≈ 17.5 µM) and an MIC (Escherichia coli [2]) of 8 mg/L (≈ 17.5 µM). It also gave an MIC (Pseudomonas putida) of 8 mg/L (≈ 17.5 µM).
In the case of OC(CNCc1ccc(Cl)cc1)Cn1c2ccccc2c2ccccc21 (stereo unspecified), the EC50 (Xanthomonas oryzae) was 1.27 mg/L (≈ 3.48 µM), the EC50 (Xanthomonas axonopodis) was 1.96 mg/L (≈ 5.37 µM) and the EC50 [3] was 3.83 mg/L (≈ 10.5 µM).
In the case of COc1cccc2c1[nH]c1ccc(C(=O)N3CCCCC3C)cc12 (stereo unspecified), the MIC (Cryptococcus neoformans [4]) was 6.25 mg/L, the MIC (Cryptococcus neoformans [5]) was 12.5 mg/L and the MIC (Staphylococcus aureus [6]) was 6.25 mg/L. For the same molecule, the MIC (Staphylococcus aureus [7]) was 6.25 mg/L.
Molecule CCn1c2ccccc2c2cc3c(cc21)C(=O)CCC(=O)N3 has a zone of inhibition at 400 µg/mL (Escherichia coli [8]) of 20 mm, a zone of inhibition at 400 µg/mL (Bacillus subtilis [9]) of 27 mm and a zone of inhibition at 400 µg/mL (Pseudomonas aeruginosa [10]) of 16 mm. The zone of inhibition at 400 µg/mL (Macrophomina phaseolina) was 19 mm, the zone of inhibition at 400 µg/mL (Fusarium oxysporum) was 18 mm and the zone of inhibition at 400 µg/mL (Aspergillus flavus) was 19 mm.
CCn1c2ccccc2c2cc(/C=N/NC3=NC(=O)/C(=N\Nc4ccccc4)S3)ccc21 showed an MIC (Aspergillus niger) of 0.49 mg/L, an MIC (Geotrichum candidum) of 0.49 mg/L and an MIC (Staphylococcus aureus [11]) of 0.49 mg/L. For the same molecule, the MIC (Bacillus subtilis [12]) was 0.49 mg/L, the MIC (Escherichia coli [13]) was 0.49 mg/L and the MIC (Klebsiella pneumoniae) was 0.49 mg/L. For the same molecule, the MIC (Salmonella typhimurium [14]) was 0.49 mg/L.
In the case of CCOC(=O)C1COC2=C(C(=O)N3c4ccccc4C4C=CC=C2C43)C1c1ccc(OC)cc1 (stereo unspecified), the MIC (Pseudomonas aeruginosa [15]) was 12.5 mg/L (≈ 27.4 µM), the MIC (Escherichia coli [16]) was 6.25 mg/L (≈ 13.7 µM) and the MIC (Staphylococcus aureus [17]) was 12.5 mg/L (≈ 27.4 µM). The MIC (Bacillus subtilis [18]) was 12.5 mg/L (≈ 27.4 µM).
Molecule CCOC(=O)C1=C(C)NC2=C(C(=O)c3ccccc32)C1c1ccc2c(c1)c1ccccc1n2CC (stereo unspecified) has an MIC (Staphylococcus aureus [19]) of 32 mg/L (≈ 69.2 µM), an MIC (Streptococcus pyogenes) of 64 mg/L (≈ 138 µM) and an MIC (Salmonella typhimurium [20]) of 32 mg/L (≈ 69.2 µM). It also gave an MIC (Escherichia coli [21]) of 32 mg/L (≈ 69.2 µM).
c1ccc2c(c1)c1ccccc1n2Cn1cncn1 gave an MIC (Staphylococcus aureus [22]) of 31.2 mg/L (≈ 126 µM), an MIC (Bacillus subtilis [23]) of 31.2 mg/L (≈ 126 µM) and an MIC (Proteus mirabilis) of 31.2 mg/L (≈ 126 µM). For the same molecule, the MIC (Candida albicans [24]) was 0.016 mg/L (≈ 0.0644 µM).
With COC(=O)C(C)c1ccc2c3cc(Cl)ccc3n(CC(=O)Nc3c(C)cccc3C)c2c1 (stereo unspecified) the MIC (Staphylococcus aureus [25]) was 0.25 mg/L (≈ 0.557 µM), the MIC (Bacillus subtilis [26]) was 0.25 mg/L (≈ 0.557 µM) and the MIC (Escherichia coli [27]) was 0.25 mg/L (≈ 0.557 µM). For the same molecule, the MIC (Pseudomonas aeruginosa [28]) was 0.25 mg/L (≈ 0.557 µM).
CN(C)C1=NC(c2ccc3c(c2)c2ccccc2n3Cc2ccc(Cl)cc2Cl)N=C(N)N1 (stereo unspecified) gave an MIC (Staphylococcus aureus [29]) of 0.5 mg/L, an MIC (Staphylococcus aureus [30]) of 0.5 mg/L and an MIC (Streptococcus mutans) of 0.5 mg/L. It also gave an MIC (Escherichia coli [31]) of 0.5 mg/L and an MIC (Candida albicans [32]) of 0.5 mg/L.
CCn1c2ccccc2c2cc(-c3cc(-c4cc(Cl)cc(O)c4O)n[nH]3)ccc21 gave an MIC (Candida albicans [33]) of 25 mg/L (≈ 61.9 µM).
